In PubChem BioAssay (NCI):
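48-hour exposure; five concentrations; linearly interpolated endpoints. Definition used: TGI = concentration required for complete inhibition of growth.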

Assays:
Test in all cases: inhibition of tumour cell growth, NCI panel, 48 h
[1] = system: CAKI-1 renal
[2] = system: A549 NSCLC
[3] = system: RPMI-8226 leukemia
[4] = system: SN12C renal
[5] = system: M14 melanoma
[6] = system: HCT-15 colon
[7] = system: NCI-H460 lung
[8] = system: HCC-2998 colon
[9] = system: SW-620 colon
[10] = system: NCI-H23 lung
[11] = system: OVCAR-4 ovarian
[12] = system: MDA-MB-435
[13] = system: RXF 393 renal
[14] = system: HL-60(TB) leukemia
[15] = system: UACC-257 melanoma
[16] = system: SK-OV-3 ovarian
[17] = system: DU-145 prostate
[18] = system: UACC-62 melanoma
[19] = system: SK-MEL-28 melanoma
[20] = system: U251 CNS
[21] = system: MDA-MB-231 breast
[22] = system: OVCAR-8 ovarian
[23] = system: CCRF-CEM leukemia
[24] = system: LOX IMVI melanoma
[25] = system: HOP-92 NSCLC
[26] = system: 786-0 renal
[27] = system: ACHN renal
[28] = system: HS 578T breast
[29] = system: KM12 colon
[30] = system: BT-549 breast
[31] = system: EKVX NSCLC
[32] = system: SR leukemia
[33] = system: HCT-116 colon
[34] = system: SK-MEL-2 melanoma
[35] = system: NCI-H522 lung
[36] = system: SNB-19 CNS
[37] = system: IGROV1 ovarian
[38] = system: OVCAR-3 ovarian
[39] = system: MDA-N
[40] = system: NCI/ADR-RES ovarian
[41] = system: SNB-75 CNS
[42] = system: TK-10 renal
[43] = system: HOP-62 NSCLC
[44] = system: OVCAR-5 ovarian
[45] = system: MOLT-4 leukemia
[46] = system: K-562 leukemia
[47] = system: HT29 colon
[48] = system: SF-268 CNS
[49] = system: A498 renal
[50] = system: MCF7 breast
[51] = system: T-47D breast
[52] = system: SF-295 CNS
[53] = system: MALME-3M melanoma
[54] = system: PC-3 prostate
[55] = system: COLO 205 colon
[56] = system: UO-31 renal
[57] = system: SK-MEL-5 melanoma
[58] = system: NCI-H226 lung

C=CCN1C(=O)/C(=C/c2ccccc2)N=C1SC1OC(COC(C)=O)C(OC(C)=O)C(OC(C)=O)C1OC(C)=O (stereo not given)
TGI [1]: 53.8 µM | TGI [2]: > 100 µM | TGI [3]: > 100 µM | TGI [4]: 71.3 µM | TGI [5]: > 100 µM | TGI [6]: > 100 µM | TGI [7]: > 100 µM | TGI [8]: > 100 µM | TGI [9]: > 100 µM | TGI [10]: 87.6 µM | TGI [11]: > 100 µM | TGI [12]: > 100 µM | TGI [13]: 36.6 µM | TGI [14]: 60.6 µM | TGI [15]: > 100 µM | TGI [16]: > 100 µM | TGI [17]: 71.6 µM | TGI [18]: 52.4 µM | TGI [19]: 76.6 µM | TGI [20]: 58.9 µM | TGI [21]: 47.7 µM | TGI [22]: 95.5 µM | TGI [23]: > 100 µM | TGI [24]: > 100 µM | TGI [25]: 76.6 µM | TGI [26]: > 100 µM | TGI [27]: 64.6 µM | TGI [28]: 72.2 µM | TGI [29]: > 100 µM | TGI [30]: 65.5 µM | TGI [31]: 63.7 µM | TGI [32]: > 100 µM | TGI [33]: 83 µM | TGI [34]: 48.8 µM | TGI [35]: 55.4 µM | TGI [36]: > 100 µM | TGI [37]: 91.1 µM | TGI [38]: 45.8 µM | TGI [39]: > 100 µM | TGI [40]: 69.4 µM | TGI [41]: 67.8 µM | TGI [42]: > 100 µM | TGI [43]: > 100 µM | TGI [44]: > 100 µM | TGI [45]: > 100 µM | TGI [46]: > 100 µM | TGI [47]: > 100 µM | TGI [48]: 53.4 µM | TGI [49]: 99.7 µM | TGI [50]: > 100 µM | TGI [51]: > 100 µM | TGI [52]: > 100 µM | TGI [53]: 62.4 µM | TGI [54]: 52.9 µM

O=S(=O)(c1ccccc1)[C@@H]1[C@H]2C=C[C@](CS)(O2)[C@H]1S(=O)(=O)c1ccccc1
TGI [1]: 92.3 µM | TGI [2]: > 100 µM | TGI [55]: > 100 µM | TGI [4]: > 100 µM | TGI [56]: > 100 µM | TGI [5]: > 100 µM | TGI [6]: 28.4 µM | TGI [7]: > 100 µM | TGI [8]: > 100 µM | TGI [9]: 30.6 µM | TGI [10]: > 100 µM | TGI [11]: > 100 µM | TGI [12]: > 100 µM | TGI [13]: > 100 µM | TGI [14]: > 100 µM | TGI [15]: > 100 µM | TGI [16]: > 100 µM | TGI [17]: > 100 µM | TGI [18]: > 100 µM | TGI [57]: > 100 µM | TGI [19]: > 100 µM | TGI [20]: > 100 µM | TGI [21]: > 100 µM | TGI [22]: > 100 µM | TGI [23]: 8.33 µM | TGI [24]: > 100 µM | TGI [25]: > 100 µM | TGI [26]: 87.2 µM | TGI [27]: > 100 µM | TGI [28]: > 100 µM | TGI [58]: > 100 µM | TGI [29]: > 100 µM | TGI [30]: > 100 µM | TGI [31]: > 100 µM | TGI [32]: > 100 µM | TGI [33]: 26 µM | TGI [35]: 31.7 µM | TGI [36]: > 100 µM | TGI [37]: > 100 µM | TGI [38]: 63.5 µM | TGI [39]: > 100 µM | TGI [40]: > 100 µM | TGI [41]: > 100 µM | TGI [42]: > 100 µM | TGI [43]: > 100 µM | TGI [44]: > 100 µM | TGI [45]: 43.6 µM | TGI [46]: 36.9 µM | TGI [47]: > 100 µM | TGI [48]: > 100 µM | TGI [49]: > 100 µM | TGI [50]: > 100 µM | TGI [51]: > 100 µM | TGI [52]: > 100 µM | TGI [53]: > 100 µM | TGI [54]: > 100 µM
